Assay results reported in PubChem BioAssay (NCI).
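48-hour exposure; five concentrations; linearly interpolated endpoints. The concentration for full growth arrest is given as TGI.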 Where a SMILES comes first, the peptide text is derived from it. The star is where a group is joined. Cbz = O=C(OCc1ccccc1)*; Boc = CC(C)(C)OC(=O)*; OSu = O=C1CCC(=O)N1O*; Bn = c1ccc(C*)cc1

What was measured:
Assay in all cases: DTP human tumour cell line panel, 48 h
A498 renal = test system: A498 renal
COLO 205 colon = test system: COLO 205 colon
DU-145 prostate = test system: DU-145 prostate
HCT-116 colon = test system: HCT-116 colon
HCT-15 colon = test system: HCT-15 colon
MDA-MB-231 breast = test system: MDA-MB-231 breast
MDA-N = test system: MDA-N
NCI/ADR-RES ovarian = test system: NCI/ADR-RES ovarian
OVCAR-3 ovarian = test system: OVCAR-3 ovarian
OVCAR-8 ovarian = test system: OVCAR-8 ovarian
SW-620 colon = test system: SW-620 colon
UACC-62 melanoma = test system: UACC-62 melanoma
CCRF-CEM leukemia = test system: CCRF-CEM leukemia
UACC-257 melanoma = test system: UACC-257 melanoma

Measured: TGI

CCOC(=O)[C@@]12C3C=CC(CC3)[C@]1(C(=O)c1ccccc1)C(=O)C(=O)N2c1ccccc1 (stereo not given in full)
not listed: CCRF-CEM leukemia | UACC-257 melanoma
> 100 µM: all other assays above

CO[C@@H]1C=C[C@@]23c4cc5c(cc4C(=O)O[C@H]2CN(C)[C@H]3C1)OCO5
not listed: DU-145 prostate | HCT-15 colon | MDA-MB-231 breast | MDA-N | NCI/ADR-RES ovarian
> 100 µM: all other assays above

CNC(=O)N(CCC#N)CCCN(C(=O)NC)c1ccccc1
not listed: A498 renal
> 100 µM: all other assays above

O=C(Nc1ccccc1)N(C1=NCC(CI)S1)c1ccc(F)cc1F (stereo not given)
48.1 µM: CCRF-CEM leukemia
78.4 µM: MDA-MB-231 breast
84 µM: UACC-257 melanoma
not listed: A498 renal
> 100 µM: all other assays above

CC(=O)NC1=C(NCCN(C)C)C(=O)c2ccccc2C1=O
20.5 µM: HCT-15 colon
18.6 µM: HCT-116 colon
31.6 µM: OVCAR-8 ovarian
> 50 µM: CCRF-CEM leukemia | OVCAR-3 ovarian | SW-620 colon
22.1 µM: UACC-62 melanoma
17.7 µM: COLO 205 colon
16.8 µM: UACC-257 melanoma

CC(C)(C)OC(=O)NC(Cc1ccc(OCc2ccccc2)cc1)C(=O)NC(CCCCNC(=O)OCc1ccccc1)C(=O)ON1C(=O)CCC1=O (stereo not given) (Boc-Tyr(Bn)-Lys(Cbz)-OSu; configuration not given here)
41.1 µM: SW-620 colon
32 µM: HCT-15 colon
> 100 µM: A498 renal | UACC-257 melanoma
51.9 µM: OVCAR-8 ovarian
29.9 µM: MDA-N
81.1 µM: MDA-MB-231 breast
72.1 µM: COLO 205 colon
41 µM: HCT-116 colon
33.2 µM: UACC-62 melanoma

c1ccc(-n2nc3ccc4nonc4c3n2)cc1
not listed: A498 renal
> 100 µM: all other assays above

CC1=CC[C@@]2(CO)[C@@H]([C@@H]1C)[C@H]1CC[C@@H]3[C@@]4(C)CC[C@H](O)C(C)(C)[C@@H]4CC[C@@]3(C)[C@]1(C)C[C@@H]2O
50.2 µM: COLO 205 colon
58.8 µM: A498 renal
55 µM: OVCAR-8 ovarian
not listed: MDA-MB-231 breast
> 100 µM: all other assays above

N#Cc1c(N)[nH]c(=S)c(C#N)c1-c1ccccc1
not listed: COLO 205 colon | NCI/ADR-RES ovarian
> 100 µM: all other assays above

CC(NC(=O)c1ccccc1)NC(=O)C(C)C(=O)Nc1ccccc1 (stereo not given)
not listed: A498 renal | OVCAR-3 ovarian
> 100 µM: all other assays above

C=C(C)[C@@]1(OC(=O)c2cc([N+](=O)[O-])cc([N+](=O)[O-])c2)C[C@@H]2CCCC[C@@H]21
not listed: A498 renal | OVCAR-3 ovarian
> 100 µM: all other assays above

N#C/C(C(=O)Nc1ccc(Cl)cc1)=C(/N)N1CCCCC1
not listed: MDA-MB-231 breast
> 100 µM: all other assays above

CC(=O)Nc1ccc2[nH]c(-c3cccc(Cl)c3)cc(=O)c2c1
84.4 µM: UACC-62 melanoma
39.9 µM: COLO 205 colon
> 100 µM: CCRF-CEM leukemia | HCT-15 colon | MDA-MB-231 breast | NCI/ADR-RES ovarian | OVCAR-8 ovarian | SW-620 colon | UACC-257 melanoma

CC(C)(C)OC(=O)NCCc1cccc2c1oc1c(CCC(=O)O)cccc12
not listed: DU-145 prostate | MDA-MB-231 breast | MDA-N | NCI/ADR-RES ovarian
> 100 µM: all other assays above

Cc1ncc2c(=O)c3c(oc2n1)c1ccccc1n3Cc1ccccc1
93.9 µM: UACC-62 melanoma
not listed: A498 renal
> 100 µM: all other assays above

CCC[C@H](NS(=O)c1ccc(C)cc1)C(C(=O)OCC)=C(c1ccccc1)c1ccccc1 (stereo not given in full)
36.7 µM: DU-145 prostate
46 µM: A498 renal
33.5 µM: UACC-257 melanoma
97.4 µM: OVCAR-8 ovarian
46.1 µM: COLO 205 colon
27.4 µM: HCT-116 colon
43.2 µM: MDA-N
31.5 µM: UACC-62 melanoma
not listed: OVCAR-3 ovarian
> 100 µM: all other assays above

C[n+]1c(-c2ccc(/C=N/NC(=O)C(=O)N/N=C/c3ccc(-c4cn5ccsc5[n+]4C)cc3)cc2)cn2ccsc21
not listed: A498 renal | DU-145 prostate | OVCAR-3 ovarian | UACC-62 melanoma
> 100 µM: all other assays above

O=C(CSc1nc2[nH]ncc2c(=O)[nH]1)c1ccc(Cl)cc1
not listed: A498 renal | DU-145 prostate
> 100 µM: all other assays above

CCN(CC)c1ccc2cc(C(=O)Nc3ccccc3)c(=N)oc2c1
not listed: A498 renal | OVCAR-3 ovarian
> 100 µM: all other assays above

COC1=CCC=C(C[C@@H]2NCCc3cc(OC)c(OC)cc32)C1
not listed: DU-145 prostate | MDA-MB-231 breast | MDA-N | NCI/ADR-RES ovarian
> 100 µM: all other assays above

CC1(C)C(O)C[C@@H](O)[C@@]2(C)C1CC[C@]1(C)C2C[C@@H](O)[C@@H]2C([C@@]3(C)CC[C@@H](C(C)(C)O)O3)CCC21C (stereo not given in full)
> 66.1 µM: CCRF-CEM leukemia
> 54.1 µM: UACC-257 melanoma
30.5 µM: SW-620 colon
34.9 µM: A498 renal
30.9 µM: HCT-116 colon
22.6 µM: UACC-62 melanoma
29.4 µM: OVCAR-3 ovarian
25.1 µM: HCT-15 colon
36.6 µM: OVCAR-8 ovarian
30 µM: COLO 205 colon

CN(NC(=O)c1cccs1)C1=NCCCCN1
not listed: DU-145 prostate
> 100 µM: all other assays above

Cc1nc(N/N=C/c2ccccc2Cl)[nH]c(=O)c1CCO
46.5 µM: OVCAR-3 ovarian
51.7 µM: OVCAR-8 ovarian
not listed: A498 renal
> 100 µM: all other assays above

Oc1ccc(N=C2CCC(=C(c3ccccc3)c3ccc(Nc4ccc(O)cc4)cc3)CC2)cc1
not listed: MDA-N | OVCAR-3 ovarian
> 100 µM: all other assays above

CC(=O)CSc1c(-c2ccccc2)c(=O)n(-c2ccccc2)c(=S)n1-c1ccccc1
not listed: A498 renal | MDA-MB-231 breast
> 100 µM: all other assays above

CCc1c(Cc2[nH]c(Cc3[nH]c(C=O)c(C)c3CC)c(CC)c2CC)[nH]c(C=O)c1C
> 1 µM: UACC-257 melanoma
not listed: A498 renal | DU-145 prostate | MDA-MB-231 breast | MDA-N | NCI/ADR-RES ovarian
> 100 µM: all other assays above

CCOC(=O)C(C)NC(=O)C(C)NC(=O)C(C)NC(=O)C(C)NC(=O)C(C)NC(=O)OCc1ccccc1 (stereo not given)
not listed: A498 renal
> 100 µM: all other assays above

N/N=C(\C(=O)Nc1ccc(Cl)cc1Cl)C(c1cnc2ccccc2n1)[N+](=O)[O-] (stereo not given)
not listed: COLO 205 colon | DU-145 prostate
> 100 µM: all other assays above

O=C(O)c1ccc(NC(NC(=O)C(C(F)(F)F)C(F)(F)F)(C(F)(F)F)C(F)(F)F)cc1
not listed: DU-145 prostate | MDA-MB-231 breast | OVCAR-3 ovarian | UACC-62 melanoma
> 100 µM: all other assays above

COC(=O)C(=O)C(C(=O)C(=O)Nc1nc2ccc(C)cc2s1)c1nc2ccc([N+](=O)[O-])cc2[nH]c1=O (stereo not given)
not listed: COLO 205 colon | DU-145 prostate
> 100 µM: all other assays above

Cc1cc(S(=O)(=O)Nc2cc(N)[nH]n2)c(SCc2nc(N)nc(N(C)C)n2)cc1Cl
not listed: MDA-MB-231 breast | UACC-62 melanoma
> 10 µM: all other assays above

N#Cc1ccccc1NC(=O)C(=O)c1c(O)c2ccccc2oc1=O
not listed: COLO 205 colon | DU-145 prostate
> 100 µM: all other assays above

O=C(O)c1cc(/C=C/c2cc(O)ccc2O)ccc1O
not listed: A498 renal | COLO 205 colon | HCT-116 colon
> 10 µM: all other assays above

c1ccc(CNCCCCNCCCNCc2ccccc2)cc1
49.3 µM: DU-145 prostate
> 100 µM: NCI/ADR-RES ovarian
32.4 µM: CCRF-CEM leukemia | UACC-62 melanoma
31.8 µM: SW-620 colon
27.6 µM: COLO 205 colon
54.7 µM: OVCAR-3 ovarian
33.2 µM: MDA-MB-231 breast
32.2 µM: HCT-116 colon
32 µM: UACC-257 melanoma
39.4 µM: HCT-15 colon
26.3 µM: MDA-N

O=C(N=Nc1cccc(Cl)c1)NNc1cccc(Cl)c1
21.2 µM: HCT-116 colon
54.3 µM: UACC-257 melanoma
35.5 µM: SW-620 colon
29.9 µM: OVCAR-3 ovarian
48.5 µM: CCRF-CEM leukemia
24.1 µM: UACC-62 melanoma
74.6 µM: MDA-MB-231 breast
31.2 µM: MDA-N
75.7 µM: HCT-15 colon
44.9 µM: A498 renal
41.8 µM: DU-145 prostate
50.1 µM: OVCAR-8 ovarian
